Measurements from ChEMBL document CHEMBL1221220, “Transport and signaling via the amino acid binding site of the yeast Gap1 amino acid transceptor” (Nat Chem Biol, 2009).
Changes are numbered by the printed parent chain. Calls of active or inactive are those of the source. The calls are words filed in the database; no cut-off is given here.

Legend:
Saccharomyces cerevisiae = test: Induction of yeast Gap1 L404 mutant-mediated amino acid uptake at 2 mM in presence of 10 mM MTSEA treated before compound addition
[1] = tested on: T1, General amino-acid permease GAP1 (Saccharomyces cerevisiae), P19145 [A396C]; test: Activation of yeast Gap1 A396C mutant-mediated amino acid uptake at 10 mM
T1 sequence (whole entry): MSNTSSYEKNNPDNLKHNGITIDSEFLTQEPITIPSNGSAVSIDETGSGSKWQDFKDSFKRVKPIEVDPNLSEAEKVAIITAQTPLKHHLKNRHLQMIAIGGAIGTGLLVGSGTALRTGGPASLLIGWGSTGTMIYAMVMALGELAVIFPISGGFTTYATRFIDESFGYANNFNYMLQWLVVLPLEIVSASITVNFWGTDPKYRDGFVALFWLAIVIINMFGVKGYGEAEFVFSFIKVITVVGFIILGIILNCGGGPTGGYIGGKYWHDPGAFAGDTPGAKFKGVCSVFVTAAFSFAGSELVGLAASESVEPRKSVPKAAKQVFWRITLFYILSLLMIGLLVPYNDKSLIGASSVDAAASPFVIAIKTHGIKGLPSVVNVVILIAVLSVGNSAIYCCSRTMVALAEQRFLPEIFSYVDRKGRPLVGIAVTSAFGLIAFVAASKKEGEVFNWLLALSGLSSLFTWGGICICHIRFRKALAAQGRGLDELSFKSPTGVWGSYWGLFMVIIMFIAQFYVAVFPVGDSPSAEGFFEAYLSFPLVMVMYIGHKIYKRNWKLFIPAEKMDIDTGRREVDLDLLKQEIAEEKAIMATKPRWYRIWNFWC

[2] = tested on: T2, General amino-acid permease GAP1 (Saccharomyces cerevisiae), P19145 [M401C]; test: Induction of yeast Gap1 M401C mutant-mediated trehalose activation at 10 mM
T2 sequence (whole entry): T1 sequence (whole entry) with C396A, M401C

[3] = tested on: T3, General amino-acid permease GAP1 (Saccharomyces cerevisiae), P19145 [A403C]; test: Induction of yeast Gap1 A403C mutant-mediated trehalose activation at 10 mM
T3 sequence (whole entry): T1 sequence (whole entry) with C396A, A403C

[4] = tested on: General amino-acid permease GAP1 (Saccharomyces cerevisiae), P19145 [I394C]; test: Inhibition of yeast Gap1 I394C mutant-mediated amino acid uptake at 10 mM
[5] = tested on: General amino-acid permease GAP1 (Saccharomyces cerevisiae), P19145 [V402C]; test: Inhibition of yeast Gap1 V402C mutant-mediated trehalose activation at 10 mM
[6] = tested on: T4, General amino-acid permease GAP1 (Saccharomyces cerevisiae), P19145 [S398C]; test: Induction of yeast Gap1 S398C mutant-mediated amino acid uptake at 2 mM in presence of 10 mM MTSEA treated before compound addition
T4 sequence (whole entry): T1 sequence (whole entry) with C396A, S398C

Chain of General amino-acid permease GAP1 (Saccharomyces cerevisiae), P19145 [V402C] (P19145 whole entry V402C): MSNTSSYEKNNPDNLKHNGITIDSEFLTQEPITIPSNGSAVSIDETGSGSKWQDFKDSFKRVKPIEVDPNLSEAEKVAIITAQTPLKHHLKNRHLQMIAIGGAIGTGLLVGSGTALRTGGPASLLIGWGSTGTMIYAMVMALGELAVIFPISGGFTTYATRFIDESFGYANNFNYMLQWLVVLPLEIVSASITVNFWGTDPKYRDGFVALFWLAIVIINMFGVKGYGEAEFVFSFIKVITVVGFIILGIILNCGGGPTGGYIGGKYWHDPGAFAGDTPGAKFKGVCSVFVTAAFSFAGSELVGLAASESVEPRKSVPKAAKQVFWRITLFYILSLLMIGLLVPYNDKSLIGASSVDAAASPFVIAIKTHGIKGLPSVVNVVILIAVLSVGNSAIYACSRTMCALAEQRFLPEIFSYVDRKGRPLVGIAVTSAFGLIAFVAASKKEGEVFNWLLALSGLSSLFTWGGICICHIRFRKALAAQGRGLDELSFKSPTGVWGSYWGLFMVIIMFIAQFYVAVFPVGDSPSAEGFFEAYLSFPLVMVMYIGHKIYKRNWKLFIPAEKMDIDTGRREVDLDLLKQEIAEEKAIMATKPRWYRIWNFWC
Chain of General amino-acid permease GAP1 (Saccharomyces cerevisiae), P19145 [I394C] (P19145 whole entry I394C): as the sequence (P19145 whole entry V402C) above, with I394C, C402V counted along it

- Activity (Saccharomyces cerevisiae): Active
- Activity [1]: inactive
- Activity [2]: inactive
- Activity [3]: inactive
- inhibition [4]: Active
- inhibition [5]: Active
- Activity [6]: Active
Structure (SMILES): NC(=O)NCCC[C@H](N)C(=O)O
